Results taken from ChEMBL document CHEMBL5365473, “Novel Sulfonylurea-Based NLRP3 Inflammasome Inhibitor for Efficient Treatment of Nonalcoholic Steatohepatitis, Endotoxic Shock, and Colitis” (J Med Chem, 2023).
Active and inactive are the calls of the source. The rule behind the calls is not given here.

Legend:
[1] = tested on: Mus musculus; test: Antiinflammatory activity against MCD diet-induced NASH C57BL/6 mouse model assessed as reduction in liver fibrosis at 40 mg/kg, po administered via gavage for 5 weeks by Masson's trichrome staining based analysis; assay type: functional, organism-based
[2] = tested on: Mus musculus; test: Antiinflammatory activity against MCD diet-induced NASH C57BL/6 mouse model assessed as reduction in liver fibrosis at 40 mg/kg, po administered via gavage for 5 weeks by Sirius red staining based analysis; assay type: functional, organism-based
[3] = tested on: Mus musculus; test: Antiinflammatory activity against DSS-induced ulcerative colitis C57BL/6 mouse assessed as reduction in inflammatory cells infiltration in lamina propria in colon at 10 mg/kg, ip administered for 9 days and measured on day 10 by H and E staining based analysis; assay type: functional, organism-based; details: time 10.0 day
[4] = Toxicity against female ICR mouse assessed as effect on body weight at 200 to 500 mg/kg administered via gavage for 12 days; assay type: organism-based; details: in vivo, po, 288 h, dose 200-500 mg/kg, time 12 day
[5] = Toxicity against female ICR mouse assessed as effect on heart weight at 200 to 500 mg/kg administered via gavage for 12 days; assay type: organism-based; details: in vivo, po, 288 h, dose 200-500 mg/kg, time 12 day
[6] = Toxicity against female ICR mouse assessed as effect on lung weight at 200 to 500 mg/kg administered via gavage for 12 days; assay type: organism-based; details: in vivo, po, 288 h, dose 200-500 mg/kg, time 12 day
[7] = Toxicity against male ICR mouse assessed as effect on heart weight at 200 to 500 mg/kg administered via gavage for 12 days; assay type: organism-based; details: in vivo, po, 288 h, dose 200-500 mg/kg, time 12 day
[8] = Toxicity against male ICR mouse assessed as effect on liver weight at 200 to 500 mg/kg administered via gavage for 12 days; assay type: organism-based; details: in vivo, po, 288 h, dose 200-500 mg/kg, time 12 day
[9] = Toxicity against male ICR mouse assessed as effect on spleen weight at 200 to 500 mg/kg administered via gavage for 12 days; assay type: organism-based; details: in vivo, po, 288 h, dose 200-500 mg/kg, time 12 day
[10] = Toxicity against female ICR mouse assessed as effect on plasma ALT level at 200 to 500 mg/kg administered via gavage for 12 days; assay type: organism-based; details: in vivo, po, 288 h, dose 200-500 mg/kg, time 12 day
[11] = Toxicity against female ICR mouse assessed as effect on ratio of plasma AST to ALT level at 200 to 500 mg/kg administered via gavage for 12 days; assay type: organism-based; details: in vivo, po, 288 h, dose 200-500 mg/kg, time 12 day
[12] = Toxicity against female ICR mouse assessed as effect on plasma creatinine level at 200 to 500 mg/kg administered via gavage for 12 days; assay type: organism-based; details: in vivo, po, 288 h, dose 200-500 mg/kg, time 12 day
[13] = biological target: NACHT, LRR and PYD domains-containing protein 3 (Mus musculus) (UniProt Q8R4B8); test: Inhibition of NLRP3 inflammasome in mouse J774.A1 cells assessed as inhibition of caspase-1 activation primed with LPS for 4.5 hrs followed by incubation with compound for 2.5 hrs and later stimulated with ATP for 30 mins by immunoblot analysis; assay type: cell-based; details: dose 3-30 nM, time 3.0 hrs
[14] = biological target: NACHT, LRR and PYD domains-containing protein 3 (Mus musculus) (UniProt Q8R4B8); test: Inhibition of NLRP3 inflammasome in mouse J774.A1 cells assessed as inhibition of IL-1 beta secretion primed with LPS for 4.5 hrs followed by incubation with compound for 2.5 hrs and later stimulated with ATP for 30 mins by immunoblot analysis; assay type: cell-based; details: dose 3-30 nM, time 3.0 hrs
[15] = tested on: J774.A1; test: Effect on pro-IL-1 beta protein expression in mouse J774.A1 cells at 3 to 30 nM primed with LPS for 4.5 hrs followed by incubation with compound for 2.5 hrs and later stimulated with ATP for 30 mins by immunoblot analysis; assay type: functional, cell-based; details: dose 3-30 nM, time 3.0 hrs
[16] = biological target: NACHT, LRR and PYD domains-containing protein 3 (Homo sapiens) (UniProt Q96P20); test: Inhibition of NLRP3 inflammasome in PMA-induced differentiated human THP-1 cells assessed as inhibition of IL-1 beta secretion primed with LPS for 4.5 hrs followed by incubation with compound for 2.5 hrs and later stimulated with ATP for 1 hr by immunoblot analysis; assay type: cell-based; details: dose 3-30 nM, time 3.5 hrs
[17] = biological target: T1, Interferon-inducible protein AIM2 (Mus musculus) (UniProt Q91VJ1); test: Inhibition of AIM2 inflammasome in mouse J774.A1 cells assessed as inhibition of caspase-1 activation at 30 nM primed with LPS for 4.5 hrs followed by incubation with compound for 24 hrs and later stimulated with poly (dA:dT) for 6 hrs by immunoblot analysis; assay type: cell-based; details: time 30.0 hrs
T1 sequence (whole entry): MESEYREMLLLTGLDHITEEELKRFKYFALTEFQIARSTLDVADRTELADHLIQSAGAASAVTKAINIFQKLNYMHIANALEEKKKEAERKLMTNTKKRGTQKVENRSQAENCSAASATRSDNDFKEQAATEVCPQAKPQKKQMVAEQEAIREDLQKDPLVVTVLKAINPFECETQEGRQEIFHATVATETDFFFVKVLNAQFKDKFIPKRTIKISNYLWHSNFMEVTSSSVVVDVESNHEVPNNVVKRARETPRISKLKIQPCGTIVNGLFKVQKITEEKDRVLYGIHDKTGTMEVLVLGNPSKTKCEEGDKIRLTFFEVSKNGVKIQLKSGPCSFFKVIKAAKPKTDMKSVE

[18] = biological target: NLR family CARD domain-containing protein 4 (Mus musculus) (UniProt Q3UP24); test: Inhibition of NLRC4 inflammasome in mouse J774.A1 cells assessed as inhibition of caspase-1 activation at 30 nM primed with LPS for 4.5 hrs followed by incubation with compound for 24 hrs and later stimulated with flagellin for 24 hrs by immunoblot analysis; assay type: cell-based; details: time 48.0 hrs
[19] = Half life in ICR mouse at 5 mg/kg, iv by LC-MS/MS analysis; assay type: ADME, organism-based; details: in vivo
[20] = Tmax in ICR mouse at 5 mg/kg, iv by LC-MS/MS analysis; assay type: ADME, organism-based; details: in vivo
[21] = Apparent volume of distribution in ICR mouse at 5 mg/kg, iv by LC-MS/MS analysis; assay type: ADME, organism-based; details: in vivo, read-out: Vz
[22] = Clearance in ICR mouse at 5 mg/kg, iv by LC-MS/MS analysis; assay type: ADME, organism-based; details: in vivo
[23] = MRT (0 to infinity) in ICR mouse at 10 mg/kg, po by LC-MS/MS analysis; assay type: ADME, organism-based; details: in vivo
[24] = Oral bioavailability in ICR mouse at 10 mg/kg by LC-MS/MS analysis; assay type: ADME, organism-based; details: in vivo
[25] = Drug uptake in Sprague-Dawley rat lungs at 50 mg/kg, po measured for 24 hrs by LC-MS/MS analysis; assay type: ADME, organism-based, Lung; details: in vivo
[26] = Drug uptake in Sprague-Dawley rat spleen at 50 mg/kg, po measured for 24 hrs by LC-MS/MS analysis; assay type: ADME, organism-based; details: in vivo
[27] = tested on: Mus musculus; test: Antiinflammatory activity against MCD diet-induced NASH C57BL/6 mouse model assessed as reduction in immune cell infiltration by measuring reduction in F4/80-positive hepatic cells at 40 mg/kg, po administered via gavage for 5 weeks by immunofluorescence staining based analysis; assay type: functional, organism-based
[28] = tested on: Mus musculus; test: Antiinflammatory activity against MCD diet-induced NASH C57BL/6 mouse model assessed as reduction in immune cell infiltration by measuring reduction in CD45-positive hepatic cells at 40 mg/kg, po administered via gavage for 5 weeks by immunofluorescence staining based analysis; assay type: functional, organism-based
[29] = tested on: Mus musculus; test: Antiinflammatory activity against LPS-induced lethal septic shock C57BL/6 mouse model assessed as effect on TNF-alpha level at 40 mg/kg, ip administered for 1 hr prior to LPS challenge and measured after 2.5 hrs by ELISA; assay type: functional, organism-based; details: time 3.5 hrs
[30] = tested on: Mus musculus; test: Antiinflammatory activity against DSS-induced ulcerative colitis C57BL/6 mouse assessed as reduction in body weight loss at 10 mg/kg, ip administered for 9 days and measured daily; assay type: functional, organism-based; details: time 9.0 day

Chain of NACHT, LRR and PYD domains-containing protein 3 (Mus musculus) (Q8R4B8 whole entry, the tested form may be a part): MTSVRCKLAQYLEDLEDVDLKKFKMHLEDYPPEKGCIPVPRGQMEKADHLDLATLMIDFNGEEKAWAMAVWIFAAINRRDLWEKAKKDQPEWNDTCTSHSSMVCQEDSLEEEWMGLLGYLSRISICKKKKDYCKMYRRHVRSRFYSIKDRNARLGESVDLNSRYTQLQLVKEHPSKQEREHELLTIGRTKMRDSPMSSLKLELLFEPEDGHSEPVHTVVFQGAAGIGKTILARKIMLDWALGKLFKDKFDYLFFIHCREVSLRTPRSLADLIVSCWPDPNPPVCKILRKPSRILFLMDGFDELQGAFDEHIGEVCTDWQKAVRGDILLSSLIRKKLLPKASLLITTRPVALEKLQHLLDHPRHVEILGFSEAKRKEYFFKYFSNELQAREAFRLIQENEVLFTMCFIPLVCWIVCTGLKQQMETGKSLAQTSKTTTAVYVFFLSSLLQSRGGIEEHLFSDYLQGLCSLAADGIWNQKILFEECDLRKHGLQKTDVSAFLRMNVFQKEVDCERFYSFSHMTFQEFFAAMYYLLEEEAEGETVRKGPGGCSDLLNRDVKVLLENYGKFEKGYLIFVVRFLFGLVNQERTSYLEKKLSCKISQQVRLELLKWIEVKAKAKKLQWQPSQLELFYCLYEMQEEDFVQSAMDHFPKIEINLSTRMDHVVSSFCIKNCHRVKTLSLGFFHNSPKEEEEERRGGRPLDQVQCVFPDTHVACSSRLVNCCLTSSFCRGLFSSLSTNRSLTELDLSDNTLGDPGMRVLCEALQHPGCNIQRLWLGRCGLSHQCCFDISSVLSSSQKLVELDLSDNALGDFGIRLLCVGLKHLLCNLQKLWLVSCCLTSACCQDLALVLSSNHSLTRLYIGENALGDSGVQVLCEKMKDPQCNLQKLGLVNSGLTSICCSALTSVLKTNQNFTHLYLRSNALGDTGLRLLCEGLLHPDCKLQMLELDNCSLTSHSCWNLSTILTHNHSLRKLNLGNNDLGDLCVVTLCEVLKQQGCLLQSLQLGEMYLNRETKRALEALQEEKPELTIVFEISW
Chain of NACHT, LRR and PYD domains-containing protein 3 (Homo sapiens) (Q96P20 whole entry, the tested form may be a part): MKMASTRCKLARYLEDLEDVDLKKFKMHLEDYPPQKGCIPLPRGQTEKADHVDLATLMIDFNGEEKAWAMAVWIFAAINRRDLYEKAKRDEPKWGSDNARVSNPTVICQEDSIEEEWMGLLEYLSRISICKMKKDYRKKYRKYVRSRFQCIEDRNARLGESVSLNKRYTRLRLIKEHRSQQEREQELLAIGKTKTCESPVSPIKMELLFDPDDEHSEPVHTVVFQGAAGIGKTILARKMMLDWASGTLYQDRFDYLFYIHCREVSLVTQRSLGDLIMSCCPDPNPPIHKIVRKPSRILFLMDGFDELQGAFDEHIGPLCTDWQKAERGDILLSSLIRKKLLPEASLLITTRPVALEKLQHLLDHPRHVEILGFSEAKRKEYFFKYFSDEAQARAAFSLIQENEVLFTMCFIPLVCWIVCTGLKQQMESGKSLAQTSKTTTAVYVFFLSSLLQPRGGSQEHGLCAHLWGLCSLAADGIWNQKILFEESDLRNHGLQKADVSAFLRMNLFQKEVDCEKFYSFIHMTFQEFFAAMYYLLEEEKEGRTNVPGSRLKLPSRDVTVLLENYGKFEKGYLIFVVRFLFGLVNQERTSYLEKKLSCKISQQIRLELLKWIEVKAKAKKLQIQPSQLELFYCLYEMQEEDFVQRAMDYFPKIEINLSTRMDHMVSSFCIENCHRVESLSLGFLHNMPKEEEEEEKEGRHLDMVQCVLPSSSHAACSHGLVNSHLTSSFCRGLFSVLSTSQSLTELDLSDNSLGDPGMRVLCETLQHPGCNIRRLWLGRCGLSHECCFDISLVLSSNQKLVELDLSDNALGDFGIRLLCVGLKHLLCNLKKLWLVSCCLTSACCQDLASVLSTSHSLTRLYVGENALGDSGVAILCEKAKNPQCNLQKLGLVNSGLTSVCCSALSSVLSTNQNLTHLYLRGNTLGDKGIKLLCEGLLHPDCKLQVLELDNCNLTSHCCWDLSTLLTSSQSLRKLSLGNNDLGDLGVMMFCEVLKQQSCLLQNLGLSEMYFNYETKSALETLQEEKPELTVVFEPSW
Chain of NLR family CARD domain-containing protein 4 (Mus musculus) (Q3UP24 whole entry, the tested form may be a part): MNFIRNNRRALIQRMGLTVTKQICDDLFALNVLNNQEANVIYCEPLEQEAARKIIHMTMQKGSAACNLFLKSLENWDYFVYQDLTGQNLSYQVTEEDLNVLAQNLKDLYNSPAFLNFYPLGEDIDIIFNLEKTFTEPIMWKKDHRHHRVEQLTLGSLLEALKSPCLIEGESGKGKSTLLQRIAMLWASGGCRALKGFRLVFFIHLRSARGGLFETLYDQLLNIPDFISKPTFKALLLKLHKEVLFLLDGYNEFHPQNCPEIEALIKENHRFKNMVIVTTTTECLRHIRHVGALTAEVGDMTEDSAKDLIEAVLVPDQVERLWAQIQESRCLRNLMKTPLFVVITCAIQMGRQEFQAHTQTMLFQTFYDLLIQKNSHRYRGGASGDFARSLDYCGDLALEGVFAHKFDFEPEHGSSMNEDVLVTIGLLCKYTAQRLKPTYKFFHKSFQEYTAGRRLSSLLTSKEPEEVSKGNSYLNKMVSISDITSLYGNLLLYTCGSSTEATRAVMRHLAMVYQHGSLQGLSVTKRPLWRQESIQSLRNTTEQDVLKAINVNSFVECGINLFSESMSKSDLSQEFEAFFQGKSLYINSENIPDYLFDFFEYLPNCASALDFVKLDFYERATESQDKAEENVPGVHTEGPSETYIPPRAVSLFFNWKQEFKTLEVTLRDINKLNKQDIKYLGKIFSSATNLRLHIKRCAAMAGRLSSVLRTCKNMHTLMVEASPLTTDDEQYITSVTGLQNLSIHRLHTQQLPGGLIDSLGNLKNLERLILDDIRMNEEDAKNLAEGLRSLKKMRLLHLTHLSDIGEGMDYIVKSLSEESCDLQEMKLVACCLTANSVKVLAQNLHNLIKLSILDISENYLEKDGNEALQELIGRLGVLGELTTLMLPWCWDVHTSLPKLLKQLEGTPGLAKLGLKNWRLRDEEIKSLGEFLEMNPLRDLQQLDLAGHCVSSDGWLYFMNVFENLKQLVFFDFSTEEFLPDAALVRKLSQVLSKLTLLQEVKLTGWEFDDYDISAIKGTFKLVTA

CN(C)Cc1ccc(S(=O)(=O)NC(=O)Nc2c3c(cc4c2CCC4)CCC3)cc1
Activity [1]: Active
Activity [2]: Active
Activity [3]: Active
Activity [4]: Non-Toxic
Activity [5]: Non-Toxic
Activity [6]: Non-Toxic
Activity [7]: Non-Toxic
Activity [8]: Non-Toxic
Activity [9]: Non-Toxic
Activity [10]: Non-Toxic
Activity [11]: Non-Toxic
Activity [12]: Non-Toxic
inhibition [13]: Dose-Dependent Effect
inhibition [14]: Dose-Dependent Effect
Activity [15]: inactive
inhibition [16]: Dose-Dependent Effect
inhibition [17]: inactive
inhibition [18]: inactive
half-life [19]: 4.01 h
Tmax [20]: 4.98 min
Vd [21]: 0.226 L/kg
clearance [22]: 0.647 mL/min/kg
MRT inf [23]: 4.79 h
bioavailability [24]: 85.2%
Drug uptake [25]: Active
Drug uptake [26]: Active
Activity [27]: Active
Activity [28]: Active
Activity [29]: inactive
Activity [30]: Active
